US20090206245A1, “Mass analysis method using fine metal particles” (Shionogi CO., Ltd, priority 2004, published 2009)

Target: β1-4 galactosyltransferase (GalT)
Test: Inhibiting activity of UDP against GalT reaction on a sugar chain (GlcNAc)-fine gold particle complex, tracked by MALDI-TOF MS
Format: biochemical
Settings: GlcNAc-Au 50 μM, UDP-Gal 400 μM, four mU GalT, HEPES buffer (10 mM MnCl2, 0.15 M NaCl), 25° C., 60 minutes; from plot of FIG. 8
Description: 100 μL of MHEPES buffer solution (10 mM MnCl2, 0.15 M NaCl) of the sugar chain-fine gold particles (GlcNAc-Au:50 μM) produced in accordance with Example 4 and UDP-Gal (400 μM), was prepared. Four mU of β1-4 galactosyltransferase (GalT) was added to the buffer solution, and the sugar chain elongation reaction was tracked at 25° C. by using MALDI-TOF Mass spectroscopy. The reaction solution was not subjected to centrifugal filtration, but to MALDI-TOF mass spectrometry using 2,5-dihydroxybenzoic acid (DHB) as a matrix (FIG. 6). […] FIG. 7 indicates a plot representing temporal variation in extent of the sugar-chain elongation reaction, which was derived from the spectrum shown in FIG. 6.
100 μL of MHEPES buffer solution (10 mM MnCl2, 0.15 M NaCl) of the sugar chain-fine gold particles (GlcNAc-Au: 50 μM) produced in accordance with Example 4 and UDP-Gal (400 μM), was prepared. Four mU of β1-4 galactosyltransferase (GalT) and UDP (prepared at nine concentration levels in the range of 0-50 μM) was then added to the buffer solution, and the solution was subjected to reaction at 25° C. for 60 minutes.

IC50: 300 µM
Structure (SMILES): O=c1ccn([C@@H]2O[C@H](COP(=O)(O)OP(=O)(O)O)[C@@H](O)[C@H]2O)c(=O)[nH]1 [UDP]
